Test results from patent publication US20230192660A1 (priority 2020, published 2023).
Converted amounts (≈) assume the structure as drawn. “And” between values parts separate entries of the source, which are not always exact repeats. Identical values can stand only once. Like-named read-outs stand apart in the source and are kept apart here.

Tests used:
MERS Mpro = MERS Mpro (Middle East respiratory syndrome-related coronavirus, UniProt K9N7C7); experiment: biochemical
HCoV229E Mpro = HCoV229E Mpro (Human coronavirus 229E, UniProt P0C6X1); experiment: biochemical
Human Cathepsin B = Human Cathepsin B (Homo sapiens, UniProt P07858); experiment: Cathepsin B protease specificity assay (Z-LR-AMC substrate); assay type: biochemical
Human Cathepsin L = Human Cathepsin L (Homo sapiens, UniProt P07711); experiment: biochemical; conditions: 0.01 ng/uL Cathepsin L, pH 5.5, 2 mM DTT; read-out: IC50 HCathepsin L
SARSCoV2 = assay type: cell-based, SARS-CoV-2
Huh7 cells [1] = conditions: 100 μM, Huh-7 cells
Huh7 cells [2] = conditions: read-out: CC50 Huh7; 72h incubation
[3] = not given; remark: listed apart in the source
[4] = not given; remark: listed apart in the source
mature SARSCoV2 M^pro = mature SARSCoV2 M^pro (Severe acute respiratory syndrome coronavirus 2, UniProt P0DTD1); experiment: biochemical; design: species or system SARS-CoV-2
SARS-CoV-2 mature Mpro = SARS-CoV-2 mature Mpro (Severe acute respiratory syndrome coronavirus 2, UniProt P0DTD1); assay type: binding; conditions: 3 μM Mpro, 30 μM compound
in vitro [5] = conditions: human
in vitro [6] = conditions: human; remark: listed apart in the source
physchem = conditions: aqueous buffer, kinetic from dmso stock
in vitro [7] = conditions: human, Caco-2
in vitro [8] = conditions: mouse, plasma
MHV M^pro = MHV M^pro (UniProt P0C6X9); experiment: In-vitro Mpro inhibition assay, MHV enzyme; assay type: biochemical, mouse hepatitis virus (MHV)
[9] = after a maximal 750 mg dose; cited from earlier work
in vitro [10] = conditions: human, Caco-2; remark: listed apart in the source
[11] = 0.05 ng/uL Cathepsin B, pH 5.5, 2 mM DTT, read-out: IC50 HCathepsin B
[12] = 20 nM SARSCoV2 Mpro, 30 min incubation, read-out: IC50 SARSCov2 Mpro
[13] = 100 nM MHV Mpro, read-out: IC50 MHV Mpro
[14] = Example 6, read-out: IC50 against SARS-CoV-2 Mpro

Sequence of MHV M^pro (P0C6X9 3334-3635): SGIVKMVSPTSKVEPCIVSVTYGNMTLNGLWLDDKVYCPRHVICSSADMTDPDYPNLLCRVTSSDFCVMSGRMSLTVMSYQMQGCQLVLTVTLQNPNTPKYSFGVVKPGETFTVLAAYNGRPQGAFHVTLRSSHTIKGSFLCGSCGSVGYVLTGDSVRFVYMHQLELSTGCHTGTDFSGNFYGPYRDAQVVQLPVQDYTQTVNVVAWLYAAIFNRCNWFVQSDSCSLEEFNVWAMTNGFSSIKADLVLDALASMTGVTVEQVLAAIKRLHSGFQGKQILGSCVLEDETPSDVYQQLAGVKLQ
Sequence of HCoV229E Mpro (P0C6X1 2966-3267): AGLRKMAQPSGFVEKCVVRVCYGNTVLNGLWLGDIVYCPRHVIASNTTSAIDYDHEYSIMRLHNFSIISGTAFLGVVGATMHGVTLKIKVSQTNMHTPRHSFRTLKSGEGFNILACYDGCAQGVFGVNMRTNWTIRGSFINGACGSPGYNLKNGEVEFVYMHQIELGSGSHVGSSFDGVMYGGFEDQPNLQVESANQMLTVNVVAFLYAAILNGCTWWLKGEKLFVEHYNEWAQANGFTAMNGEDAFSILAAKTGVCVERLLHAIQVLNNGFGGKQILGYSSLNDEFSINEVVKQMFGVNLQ
Sequence of MERS Mpro (K9N7C7 3248-3553 limits assumed): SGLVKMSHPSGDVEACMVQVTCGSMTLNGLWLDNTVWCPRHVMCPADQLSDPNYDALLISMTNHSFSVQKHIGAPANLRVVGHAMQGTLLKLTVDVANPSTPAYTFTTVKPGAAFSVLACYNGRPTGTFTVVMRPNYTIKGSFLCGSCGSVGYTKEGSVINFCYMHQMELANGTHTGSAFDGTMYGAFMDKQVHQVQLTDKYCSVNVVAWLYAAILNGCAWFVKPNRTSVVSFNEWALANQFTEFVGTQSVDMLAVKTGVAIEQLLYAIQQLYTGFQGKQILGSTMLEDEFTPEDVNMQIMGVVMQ
Sequence of Human Cathepsin L (P07711 114-333): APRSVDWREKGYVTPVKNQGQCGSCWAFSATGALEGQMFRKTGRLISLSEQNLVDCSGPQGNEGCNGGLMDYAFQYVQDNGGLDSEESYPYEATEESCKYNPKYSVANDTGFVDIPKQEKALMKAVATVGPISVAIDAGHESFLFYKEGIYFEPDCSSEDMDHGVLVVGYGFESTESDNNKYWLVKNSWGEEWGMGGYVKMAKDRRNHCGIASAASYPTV

CC(C)(C)NC(=O)N[C@H](C(=O)N1C[C@H]2[C@@H]([C@H]1C(=O)N[C@@H](C[C@@H]1CCNC1=O)C(=O)C(N)=O)C2(C)C)C(C)(C)C [ML1000]
IC50 (MERS Mpro; read-out: IC50 MERS Mpro): 530 nM
IC50 (HCoV229E Mpro): 130 nM
IC50 (Human Cathepsin B; [11]): 5900 nM
IC50 (Human Cathepsin L): 3200 nM
EC50 (SARSCoV2; read-out: EC50: 50% effective antiviral concentration): 100 nM
cytotoxicity at the highest dose tested (Huh7 cells [1]): no cytotoxicity
CC50 (Huh7 cells [2]): > 100000 nM
Kinetic Solubility in PBS: 87 µM
Caco-2 Permeability Papp B-A (Caco-2): 0.4 10-6 cm/s
Caco-2 Permeability Papp A-B (Caco-2; Caco-2): <0.2 10-6 cm/s
Plasma Stability Human T1/2 [3]: 1.82 h
Plasma Stability Mouse T1/2 [4]: 0.383 h

CNC(=O)C(=O)[C@H](C[C@@H]1CCNC1=O)NC(=O)[C@@H]1[C@@H]2[C@H](CN1C(=O)CCc1ccccc1)C2(C)C [ML102m]
IC50 (mature SARSCoV2 M^pro; [12]): 120 nM
IC50 (MERS Mpro): 1100 nM
IC50 (HCoV229E Mpro): 720 nM
ΔTm Mpro (SARS-CoV-2 mature Mpro): 15.2 °C
CC50 (in vitro [5]): > 100000 nM
CC50 (in vitro [6]): > 100000 nM
solubility kinetic (physchem): > 100 µM
Papp A→B (in vitro [7]): 0.4 ×10⁻⁶ cm/s
Papp B→A (in vitro [7]): 1.8 ×10⁻⁶ cm/s
half-life (in vitro [8]): 0.75 h

CC(C)C[C@H](NC(=O)OCc1ccccc1)C(=O)N[C@@H](CC1CCNC1=O)C(O)S(=O)(=O)[O-].[Na+] (some centres unmarked) [GC-376, reference compound]
IC50 (MHV M^pro; [13]): 50 nM
IC50 (MHV M^pro; read-out: IC50, 100 nM mature MHV M^pro at 30° C., 100 nM enzyme, 30° C.): 67 nM
IC50 (Human Cathepsin B; [11]): 1 nM
IC50 (Human Cathepsin L): 1 nM
EC50 (SARSCoV2; read-out: EC50): 0.1 nM
CC50 (Huh7 cells [2]): > 100000 nM
Kinetic Solubility in PBS: 71 µM
Caco-2 Permeability Papp A-B (Caco-2; A-B): <0.3 10-6 cm/s
Caco-2 Permeability Papp B-A (Caco-2): 5 10-6 cm/s
Plasma Stability Human T1/2 [3]: 1.58 h
Plasma Stability Mouse T1/2 [4]: 3.87 h

CNC(=O)C(=O)[C@H](C[C@@H]1CCNC1=O)NC(=O)[C@@H]1[C@@H]2[C@H](CN1C(=O)CNc1c(F)cc(F)cc1F)C2(C)C [ML104m]
IC50 (MERS Mpro): 290 nM
IC50 (HCoV229E Mpro): 230 nM
ΔTm Mpro (SARS-CoV-2 mature Mpro): 17.1 °C
CC50 (in vitro [5]): > 100000 nM
CC50 (in vitro [6]): > 100000 nM
solubility kinetic (physchem): 98 µM (≈ 52.7 µg/mL)
Papp A→B (in vitro [7]): 0.5 ×10⁻⁶ cm/s
Papp B→A (in vitro [7]): 2.5 ×10⁻⁶ cm/s
half-life (in vitro [8]): 1.35 h

CCC[C@H](NC(=O)[C@@H]1[C@H]2CCC[C@H]2CN1C(=O)[C@@H](NC(=O)[C@@H](NC(=O)c1cnccn1)C1CCCCC1)C(C)(C)C)C(=O)C(=O)NC1CC1 [Telaprevir, telaprevir, reference compound]
IC50 (Human Cathepsin B): 36000 nM
IC50 (Human Cathepsin L): 25000 nM
CC50 (in vitro [5]): 10000 to 100000 nM
CC50 (in vitro [6]): 10000 to 100000 nM
peak plasma concentration [9]: 5 µM

COc1cccc2[nH]c(C(=O)N3C[C@H]4[C@@H]([C@H]3C(=O)N[C@@H](C[C@@H]3CCNC3=O)C(=O)C(N)=O)C4(C)C)cc12 [ML105]
IC50 (mature SARSCoV2 M^pro; [12]): 20 nM
IC50 (mature SARSCoV2 M^pro; [14]): < 50 nM
IC50 (MHV M^pro; [13]): 60 nM
IC50 (MERS Mpro): 340 nM
IC50 (HCoV229E Mpro): 10 nM
IC50 (Human Cathepsin B; [11]): 700 nM
IC50 (Human Cathepsin L): 300 nM
ΔTm Mpro (SARS-CoV-2 mature Mpro): 18.6 °C
Plasma Stability Human T1/2 [3]: ∞
CC50 (in vitro [10]): > 100000 nM
CC50 (in vitro [5]): > 100000 nM
CC50 (in vitro [6]): > 100000 nM
solubility kinetic (physchem): 80 µM (≈ 40.8 µg/mL)
Papp A→B (in vitro [7]): < 0.2 ×10⁻⁶ cm/s
Papp B→A (in vitro [7]): 0.3 ×10⁻⁶ cm/s
half-life (in vitro [8]): 0.333 h

CC1(C)[C@@H]2[C@@H](C(=O)NC(C[C@@H]3CCNC3=O)C(=O)C(N)=O)N(C(=O)CNc3c(F)cc(F)cc3F)C[C@@H]21 (some centres unmarked) [ML104]
IC50 (mature SARSCoV2 M^pro; [14]): < 50 nM and 30 nM
IC50 (MHV M^pro; [13]): 250 nM
IC50 (MERS Mpro): 190 nM
IC50 (HCoV229E Mpro): 440 nM
IC50 (Human Cathepsin B; [11]): 17000 nM
IC50 (Human Cathepsin L): 11000 nM
ΔTm Mpro (SARS-CoV-2 mature Mpro): 17.5 °C
Plasma Stability Human T1/2 [3]: ∞
CC50 (in vitro [10]): > 100000 nM
CC50 (in vitro [5]): > 100000 nM
CC50 (in vitro [6]): > 100000 nM
solubility kinetic (physchem): 86 µM (≈ 45 µg/mL)
Papp A→B (in vitro [7]): < 0.2 ×10⁻⁶ cm/s
Papp B→A (in vitro [7]): 0.9 ×10⁻⁶ cm/s
half-life (in vitro [8]): 1.67 h

CC1(C)[C@@H]2[C@@H](C(=O)N[C@@H](C[C@@H]3CCNC3=O)C(=O)C(N)=O)N(C(=O)CCc3ccccc3)C[C@@H]21 [ML102]
IC50 (mature SARSCoV2 M^pro; [12]): 90 nM
IC50 (MHV M^pro; [13]): 980 nM
IC50 (MERS Mpro): 1200 nM
IC50 (HCoV229E Mpro): 290 nM
IC50 (Human Cathepsin B; [11]): 2200 nM
IC50 (Human Cathepsin L): 800 nM
ΔTm Mpro (SARS-CoV-2 mature Mpro): 15.5 °C
Plasma Stability Human T1/2 [3]: ∞
CC50 (in vitro [5]): > 100000 nM
CC50 (in vitro [6]): > 100000 nM
solubility kinetic (physchem): 83 µM (≈ 38.9 µg/mL)
Papp A→B (in vitro [7]): < 0.2 ×10⁻⁶ cm/s
Papp B→A (in vitro [7]): 0.7 ×10⁻⁶ cm/s
half-life (in vitro [8]): 0.3 h
